According to ChEMBL document CHEMBL3769367, “Orexin Receptor Antagonists: New Therapeutic Agents for the Treatment of Insomnia” (J Med Chem, 2016):
Values belong to the compound of their own block, whether it stands above or below them.

Tests used:
[1] = target: T1, Orexin/Hypocretin receptor type 1 (Homo sapiens, UniProt O43613); experiment: Antagonist activity at OX1R (unknown origin)
T1 sequence (O43613 whole entry): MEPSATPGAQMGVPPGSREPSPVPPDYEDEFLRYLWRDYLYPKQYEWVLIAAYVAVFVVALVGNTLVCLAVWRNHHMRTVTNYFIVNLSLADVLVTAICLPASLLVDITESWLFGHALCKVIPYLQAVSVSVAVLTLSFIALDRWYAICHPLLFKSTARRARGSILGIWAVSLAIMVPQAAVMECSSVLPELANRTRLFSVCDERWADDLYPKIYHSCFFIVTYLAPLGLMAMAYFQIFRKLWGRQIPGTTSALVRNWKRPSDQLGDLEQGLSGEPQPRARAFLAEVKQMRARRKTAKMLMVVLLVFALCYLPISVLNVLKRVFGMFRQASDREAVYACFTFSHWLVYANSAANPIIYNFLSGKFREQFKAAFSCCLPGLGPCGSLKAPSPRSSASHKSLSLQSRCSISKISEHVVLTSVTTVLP

Orexin receptor type 2 [2] = target: T2, Orexin receptor type 2 (Homo sapiens, UniProt O43614); experiment: Antagonist activity at OX2R (unknown origin)
T2 sequence (O43614 whole entry): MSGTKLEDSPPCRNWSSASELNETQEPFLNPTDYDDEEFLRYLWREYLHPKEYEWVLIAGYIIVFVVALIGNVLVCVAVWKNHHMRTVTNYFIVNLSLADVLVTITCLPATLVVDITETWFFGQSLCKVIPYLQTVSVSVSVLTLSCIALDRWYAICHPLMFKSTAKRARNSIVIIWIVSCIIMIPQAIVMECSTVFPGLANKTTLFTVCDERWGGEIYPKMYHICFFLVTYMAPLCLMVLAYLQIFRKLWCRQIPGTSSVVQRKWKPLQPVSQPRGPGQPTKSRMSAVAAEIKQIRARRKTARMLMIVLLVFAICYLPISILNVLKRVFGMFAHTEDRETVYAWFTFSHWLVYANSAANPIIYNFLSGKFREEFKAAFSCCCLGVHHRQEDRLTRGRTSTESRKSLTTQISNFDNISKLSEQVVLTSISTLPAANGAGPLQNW

[3] = target: T1, Orexin/Hypocretin receptor type 1; experiment: Antagonist activity at human OX1R expressed in CHO cell membranes assessed as inhibition of orexin-A-induced intracellular calcium release after 120 mins; assay type: functional, cell-based
Orexin receptor type 2 [4] = target: T2, Orexin receptor type 2; experiment: Antagonist activity at human OX2R expressed in CHO cell membranes assessed as inhibition of orexin-A-induced intracellular calcium release after 120 mins; assay type: functional, cell-based
[5] = Plasma protein binding in rat; assay type: ADME, cell-free; conditions: read-out: PPB (converted)
[6] = Half life in iv dosed dog; assay type: ADME, organism-based, Canis lupus familiaris; conditions: in vivo
Rattus norvegicus [7] = experiment: Effect on sleep parameter in po dosed rat by EEG analysis; assay type: functional
[8] = Plasma protein binding in human; assay type: ADME, cell-free; conditions: read-out: PPB (converted)
[9] = Oral bioavailability in dog; assay type: ADME, organism-based, Canis lupus familiaris; conditions: in vivo
[10] = Oral bioavailability in rat; assay type: ADME, organism-based; conditions: in vivo
[11] = target: T1, Orexin/Hypocretin receptor type 1; experiment: Binding affinity to OX1R (unknown origin)
[12] = Clearance in iv dosed rat; assay type: ADME, organism-based; conditions: in vivo
[13] = Ratio of drug level in brain to plasma in rat; assay type: ADME, cell-free; conditions: read-out: BPR
[14] = Clearance in iv dosed dog; assay type: ADME, organism-based, Canis lupus familiaris; conditions: in vivo
Rattus norvegicus [15] = species: Rattus norvegicus; experiment: Receptor occupancy at OX2R in rat brain assessed as drug level in plasma; assay type: functional
[16] = Ratio of drug level in CSF to plasma in rat; assay type: ADME, cell-free
[17] = Plasma protein binding in dog; assay type: ADME, cell-free, Canis lupus familiaris; conditions: read-out: PPB (converted)
Canis familiaris [18] = experiment: Effect on sleep parameter in po dosed dog by EEG analysis; assay type: functional, Canis lupus familiaris
[19] = Half life in iv dosed rat; assay type: ADME, organism-based; conditions: in vivo
[20] = target: T1, Orexin/Hypocretin receptor type 1; experiment: Antagonist activity at human OX1R expressed in CHO cells assessed as inhibition of orexin-A-induced intracellular calcium release by FLIPR assay; assay type: functional, cell-based
Homo sapiens [21] = experiment: Effect on sleep parameter in insomnia patient assessed as latency to persistent sleep time at 400 mg, po by polysomnography; assay type: functional
Homo sapiens [22] = experiment: Effect on sleep parameter in insomnia patient assessed as wake after sleep onset time at 100 mg, po by polysomnography; assay type: functional
[23] = Ratio of drug level in brain to plasma in Wistar rat; assay type: ADME, cell-free; conditions: read-out: BPR
Rattus norvegicus [24] = experiment: Effect on sleep parameter in po dosed Wistar rat by EEG analysis; assay type: functional
[25] = Plasma protein binding in Wistar rat; assay type: ADME, cell-free; conditions: read-out: PPB (converted)
[26] = Ratio of drug level in CSF to plasma in Wistar rat
[27] = Oral bioavailability in human; assay type: ADME, organism-based; conditions: in vivo
Homo sapiens [28] = experiment: Effect on sleep parameter in insomnia patient assessed as latency to persistent sleep time at 100 mg, po by polysomnography; assay type: functional
Homo sapiens [29] = experiment: Effect on sleep parameter in insomnia patient assessed as total sleep time at 100 mg, po by polysomnography; assay type: functional
[30] = Oral bioavailability in Wistar rat; assay type: ADME, organism-based; conditions: in vivo
Homo sapiens [31] = experiment: Effect on sleep parameter in insomnia patient assessed as total sleep time at 50 mg, po by polysomnography; assay type: functional
[32] = Tmax in human at 1 to 1000 mg administered as single dose; assay type: ADME, organism-based; conditions: in vivo
[33] = Elimination half life in human at 1 to 1000 mg administered as single dose; assay type: ADME, organism-based; conditions: in vivo, read-out: beta t1/2 (converted)
Homo sapiens [34] = experiment: Effect on sleep parameter in insomnia patient assessed as wake after sleep onset time at 50 mg, po by polysomnography; assay type: functional
Homo sapiens [35] = experiment: Effect on sleep parameter in insomnia patient assessed as wake after sleep onset time at 400 mg, po by polysomnography; assay type: functional
Homo sapiens [36] = experiment: Effect on sleep parameter in insomnia patient assessed as total sleep time at 400 mg, po by polysomnography; assay type: functional
[37] = Oral bioavailability in Beagle dog; assay type: ADME, organism-based, Canis lupus familiaris; conditions: in vivo
Homo sapiens [38] = experiment: Effect on sleep parameter in insomnia patient assessed as sleep efficiency at 50 mg, po by polysomnography; assay type: functional
Homo sapiens [39] = experiment: Effect on sleep parameter in insomnia patient assessed as wake after sleep onset time at 200 mg, po by polysomnography; assay type: functional
Rattus norvegicus [40] = experiment: Effect on sleep parameter in Wistar rat assessed as NREM sleep duration time at 100 mg/kg, po measured over 12 hrs (reference value: 243 +/- 8 min); assay type: functional
Homo sapiens [41] = experiment: Effect on sleep parameter in insomnia patient assessed as latency to persistent sleep time at 50 mg, po by polysomnography; assay type: functional
Rattus norvegicus [42] = experiment: Effect on sleep parameter in Wistar rat assessed as latency to persistent REM time at 100 mg/kg, po measured over 12 hrs (reference value: 101 +/- 17 min); assay type: functional
Rattus norvegicus [43] = experiment: Effect on sleep parameter in Wistar rat assessed as REM sleep duration time at 100 mg/kg, po measured over 12 hrs (reference value: 33 +/- 4 min); assay type: functional
Canis familiaris [44] = experiment: Effect on sleep parameter in po dosed Beagle dog by EEG analysis; assay type: functional, Canis lupus familiaris
Rattus norvegicus [45] = experiment: Effect on sleep parameter in Wistar rat assessed as latency to persistent NREM time at 100 mg/kg, po measured over 12 hrs (reference value: 40 +/- 3 min); assay type: functional
Homo sapiens [46] = experiment: Effect on sleep parameter in insomnia patient assessed as total sleep time at 200 mg, po by polysomnography; assay type: functional
Homo sapiens [47] = experiment: Effect on sleep parameter in insomnia patient assessed as latency to persistent sleep time at 200 mg, po by polysomnography; assay type: functional
Homo sapiens [48] = experiment: Effect on sleep parameter in insomnia patient assessed as sleep efficiency at 100 mg, po by polysomnography; assay type: functional
[49] = Half life in iv dosed Wistar rat; assay type: ADME, organism-based; conditions: in vivo
Homo sapiens [50] = experiment: Effect on sleep parameter in insomnia patient assessed as sleep efficiency at 200 mg, po by polysomnography; assay type: functional
Homo sapiens [51] = experiment: Effect on sleep parameter in insomnia patient assessed as sleep efficiency at 400 mg, po by polysomnography; assay type: functional

- IC50 [1]: 0.017 µM
- IC50 (Orexin receptor type 2 [2]): > 10 µM
Structure (SMILES): COc1ccc(CC2c3cc(OC(C)C)c(OC)cc3CCN2CC(=O)NCc2ccccc2)cc1OC (stereo unspecified)

- IC50 [3]: 0.011 µM
- IC50 (Orexin receptor type 2 [4]): 0.011 µM
- fraction unbound [5]: 0.05
- half-life [6]: 2.3 h
- fraction unbound [8]: 0.025
- bioavailability [9]: 26%
- bioavailability [10]: 25%
- Ki [11]: 0.0022 µM
- clearance [12]: 67 mL/min/kg
- Kp [13]: 1.1
- clearance [14]: 5.8 mL/min/kg
- Kp [16]: 0.04
- fraction unbound [17]: 0.06
- half-life [19]: 0.5 h
Structure (SMILES): Cc1ccc(-c2ncccn2)c(C(=O)N2C[C@H](COc3ccc(F)cn3)CC[C@H]2C)c1 [FILOREXANT]
- Activity (Rattus norvegicus [7]): 3 mg/kg
- Occ90 (Rattus norvegicus [15]): 142 nM
- Activity (Canis familiaris [18]): 0.25 mg/kg

- IC50 [20]: 0.021 µM
Structure (SMILES): CSc1cccc(NC(=O)[C@@H]2CCCN2S(=O)(=O)c2ccc(Br)s2)c1

- Kp [23]: 0.3
- fraction unbound [25]: 0.01
- Kp [26]: 0.002
- bioavailability [27]: 11%
- bioavailability [30]: 8%
- Tmax [32]: 0.7 h
- half-life [33]: 13.1 h
- bioavailability [37]: 18%
- half-life [49]: 8 h
Structure (SMILES): CNC(=O)[C@@H](c1ccccc1)N1CCc2cc(OC)c(OC)cc2[C@@H]1CCc1ccc(C(F)(F)F)cc1 [ALMOREXANT]
- Time (Homo sapiens [21]): -18 min
- Time (Homo sapiens [22]): -20.1 min
- Activity (Rattus norvegicus [24]): 30 mg/kg
- Time (Homo sapiens [28]): -10.4 min
- Time (Homo sapiens [29]): 21.4 min
- Time (Homo sapiens [31]): 15.8 min
- Time (Homo sapiens [34]): -6.7 min
- Time (Homo sapiens [35]): -54 min
- Time (Homo sapiens [36]): 69.7 min
- Activity (Homo sapiens [38]): 3.3%
- Time (Homo sapiens [39]): -34.3 min
- Time (Rattus norvegicus [40]): 286 min
- Time (Homo sapiens [41]): -5.7 min
- Time (Rattus norvegicus [42]): 91 min
- Time (Rattus norvegicus [43]): 50 min
- Activity (Canis familiaris [44]): 100 mg/kg
- Time (Rattus norvegicus [45]): 30 min
- Time (Homo sapiens [46]): 39.3 min
- Time (Homo sapiens [47]): -10.4 min
- Activity (Homo sapiens [48]): 4.6%
- Activity (Homo sapiens [50]): 8.2%
- Activity (Homo sapiens [51]): 14.4%
